Data taken from publication PMC9228955, “Synthesis, Physicochemical, Labeling and In Vivo Characterization of ^44Sc-Labeled DO3AM-NI as a Hypoxia-Sensitive PET Probe” (Pharmaceuticals, 2022).

Key:
[1] = Formation rate of Sc(DO3AM-NI) at acidic pH followed by 1H and 45Sc NMR; assay type: physicochemical; conditions: pH = 1.52, 25 °C, 3.80 mM ligand, 4.90 mM ScCl3
Description: This is promising for the labeling studies, yet it also underlines that the so-called “batch-method” must be applied in very acidic samples for the determination of the stability constant of the Sc(DO3AM-NI) chelate.
^1H- and ^45Sc-NMR measurements (400 MHz and 97 MHz, respectively) were performed with a Bruker DRX 400 (9.4 T) spectrometer equipped with a Bruker VT-1000 thermocontroller and a BB inverse z-gradient probe (5 mm). The kinetic experiments were performed at 25 °C, whereas the equilibrium studies were performed at 37 °C in aqueous solutions using D2O (in capillary) for locking. Typical parameters of ^45Sc-NMR measurements used were pulse length p1 = 15.6 μs (90°), relaxation delay d1 = 0.1 s and 128 scans. The formation reaction of the Sc(DO3AM-NI) complex was followed by ^1H- and ^45Sc-NMR spectroscopy in a sample containing 3.80 mM ligand and 4.90 mM ScCl3 with a total acid concentration corresponding to a pH of 1.54. […] Actually, the intensity of the ^45Sc-NMR signal of Sc(III)aq could precisely be measured while that of the broad signal corresponding to the Sc(DO3AM-NI) complex could not. […] The molar integral values of the ^45Sc-NMR signal of Sc(III)aq were determined by recording the ^45Sc-NMR spectra of a 50 mM ScCl3 solution containing 0.015 M HCl as a reference sample. […]

[2] = Stability constant of Sc(III) complex by 1H and 45Sc NMR batch samples and pH-potentiometric titration; pSc calculation; assay type: physicochemical; conditions: 0.15 M NaCl, 37 °C
Description: The stability constant of the Sc(DO3AM-NI) complex was assessed by ^1H and ^45Sc-NMR studies using samples prepared in the 0.055–0.195 M acid concentration range. […] Absence of protonation and the presence of a ternary hydroxydo species formation with KScL•OH = 10.88(5) were detected at our experimental conditions. The NMR samples contained 3.32 mM ligand, ScCl3 and a constant ionic strength of 0.15 M NaCl. The samples were thermostated at 37 °C, and their ^1H- and ^45Sc-NMR spectra were recorded after 60 days. In order to ensure that the equilibrium in the samples was attained, the ^1H and ^45Sc-NMR measurements were repeated again 90 days later. The spectra were practically identical with the spectra recorded at 60 days (Figures S4 and S5). As expected, the thermodynamic stability constant of the Sc(DO3AM-NI) complex (log KScL = 22.36(4)) was considerably lower than those of Sc(III) complexes formed with DOTA, DTPA or AAZTA ligands (Table 1). A moderate decrease in terms of thermodynamic stability constants was already observed for the complexes of DO3A-monamides formed with Gd(III) ions in comparison to the stability of parent Gd(DOTA)^− chelate. Despite the lower stability constant of the complex, the Sc(III) ion was complexed completely around pH = 2.0 (in a millimolar concentration range, see Figure 2). However, it might be misleading to directly compare the stability constants of the complexes formed by ligands of different basicity (as it depends on the basicity of the ligand); therefore, we calculated and compared the pSc values (which could be treated as conditional constants) for the complexes shown in Table 1 by taking the protonation constants of ligands, the stability constants of the complex species present in solution and the hydrolysis of the Sc(III) ion (according to Ref. [23]: log βSc(OH) = −4.3, log βSc(OH)2 = −9.7, log βSc(OH)3 = −16.1, log βSc(OH)4 = −26.0 and log βSc2(OH)4 = −6.0) into account.
The equilibrium measurements were performed at constant ionic strength maintained by 0.15 M NaCl at 37 °C. For determining the protonation constants of DO3AM-NI, two parallel pH-potentiometric titrations were performed with 0.1611 M NaOH in a 5.00 cm^3 sample containing the ligand at the concentration of 2.76 mM. The stability constant of Sc(DO3AM-NI) was assessed by ^1H and ^45Sc NMR in 0.7 mL “batch” samples containing the metal and the ligand at 3.32 mM and different concentrations of strong acid (0.05–0.20 M) aged 90 days (see below). The formation of protonated and ternary hydroxydo complex species was probed by pH-potentiometric titration by titrating the preformed complex (at a concentration of 1.95 mM) with standardized NaOH solution. For the calculation of the logKMH-1L value, the VNaOH–pH data used were obtained in the pH range 1.68–11.85. The pH-potentiometric titrations were carried out with a Metrohm 785 DMP Titrino titration workstation with the use of a Metrohm-6.0233.100-combined electrode calibrated via a two-point calibration routine using KH-phthalate (pH = 4.005) and borax (pH = 9.177) buffers. The titrated samples were stirred with a magnetic stirrer, and N2 gas was bubbled through the solutions to avoid the effect of CO2. For the calculation of [H^+] from the measured pH values, the method proposed by Irving et al. was applied. For this, a 0.01M HCl solution was titrated with the standardized NaOH solution in the presence of 0.15 M NaCl ionic strength at 37 °C. The differences between the measured (pHread) and calculated pH (-log[H^+]) values were used to obtain the equilibrium H^+ concentration from the pHmeas values during the titrations. […] For the calculation of the equilibrium constants, the PSEQUAD program was used.
^1H- and ^45Sc-NMR measurements (400 MHz and 97 MHz, respectively) were performed with a Bruker DRX 400 (9.4 T) spectrometer equipped with a Bruker VT-1000 thermocontroller and a BB inverse z-gradient probe (5 mm). […]

log KScL•OH (ternary hydroxydo species) [2]: 10.88(5) | log KSc•L (stability constant of Sc(III) complex) [2]: 22.36(4) | pH around which the Sc(III) ion is complexed completely ([2]; millimolar concentration range): ~2.0
Structure (SMILES): O=C([O-])CN1CCN(CC(=O)[O-])CCN(CC(=O)NCCn2ccnc2[N+](=O)[O-])CCN(CC(=O)[O-])CC1.[Sc+3] [Sc(DO3AM-NI)]
time for complex formation to reach equilibrium [1]: about twelve
